From patent publication US12565490B2, “Inhibitors of Receptor Interacting Protein Kinase I for the treatment of disease” (Board of Regents, The University of Texas System, priority 2020, dated 2026)

Tested on: human monocytic cell line U937
Assay: Human U937 cellular necroptosis assay
Type: cell-based
Details: U-937; U937 cells stimulated with 25 ng/mL human TNFalpha and 25 μM z-VAD-FMK; 22 hr; viability by Cell Titer-Glo 2.0; read-out: hU937 IC50
In short: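 U937 cells (5000/well) driven to necroptosis by 25 ng/mL human TNFalpha plus 25 μM z-VAD-FMK alongside 1:3-diluted compounds, 22 hr at 37° C, 5% CO2. Viability by CellTiter-Glo luminescence; IC50 from four-parameter logistic fit.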

Structure (SMILES)	IC50 [nM]
CN1C(=O)[C@@H](NC(=O)c2ncc(Cl)c(-c3ccc(F)cc3F)n2)COc2ccc(NCC3(CCl)CCOCC3)cc21 [Example 141, (S)-5-chloro-N-(7-(((4-(chloromethyl)tetrahydro-2H-pyran-4-yl)methyl)amino)-5-methyl-4-oxo-2,3,4,5-tetrahydrobenzo[b]-[1,4]oxazepin-3-yl)-4-(2,4-difluorophenyl)pyrimidine-2-carboxamide]	14.5
CN1C(=O)[C@@H](NC(=O)c2ncc(Cl)c(-c3cc(F)ccc3F)n2)COc2ccc(NCC3(CCl)CCOCC3)cc21 [Example 142, (S)-5-chloro-N-(7-(((4-(chloromethyl)tetrahydro-2H-pyran-4-yl)methyl)amino)-5-methyl-4-oxo-2,3,4,5-tetrahydrobenzo[b]-[1,4]oxazepin-3-yl)-4-(2,5-difluorophenyl)pyrimidine-2-carboxamide]	19
CN1C(=O)[C@@H](NC(=O)c2ncc(Cl)c(-c3ccc(F)cc3F)n2)COc2ccc(N3CCOCC3)cc21 [Example 143, (S)-5-chloro-4-(2,4-difluorophenyl)-N-(5-methyl-7-morpholino-4-oxo-2,3,4,5-tetrahydrobenzo[b]-[1,4]oxazepin-3-yl)pyrimidine-2-carboxamide]	71
CN1C(=O)[C@@H](NC(=O)c2ncc(Cl)c(-c3cc(F)ccc3F)n2)COc2ccc(N3CC4(CCOCC4)C3)cc21 [Example 144, (S)-5-chloro-4-(2,5-difluorophenyl)-N-(5-methyl-4-oxo-7-(7-oxa-2-azaspiro[3.5]nonan-2-yl)-2,3,4,5-tetrahydrobenzo[b]-[1,4]oxazepin-3-yl)pyrimidine-2-carboxamide]	15.8
Cc1ccc(-c2nc(C(=O)N[C@H]3COc4ccc(N5CC6(CCOCC6)C5)cc4N(C)C3=O)ncc2Cl)cc1F [Example 145, (S)-5-chloro-4-(3-fluoro-4-methylphenyl)-N-(5-methyl-4-oxo-7-(7-oxa-2-azaspiro[3.5]nonan-2-yl)-2,3,4,5-tetrahydrobenzo[b]-[1,4]oxazepin-3-yl)pyrimidine-2-carboxamide]	11
COCCOc1ccc2c(c1)N(C)C(=O)[C@@H](NC(=O)c1ncc(Cl)c(-c3ccc(F)cc3F)n1)CO2 [Example 146, (S)-5-chloro-4-(2,4-difluorophenyl)-N-(7-(2-methoxyethoxy)-5-methyl-4-oxo-2,3,4,5-tetrahydrobenzo[b]-[1,4]oxazepin-3-yl)pyrimidine-2-carboxamide]	19.4
CN1C(=O)[C@@H](NC(=O)c2ncc(Cl)c(-c3ccc(F)cc3F)n2)COc2ccc(OCC(CO)CCl)cc21 (stereo partly drawn) [Example 147, 5-chloro-N-((3S)-7-(3-chloro-2-(hydroxymethyl)propoxy)-5-methyl-4-oxo-2,3,4,5-tetrahydrobenzo[b]-[1,4]oxazepin-3-yl)-4-(2,4-difluorophenyl)pyrimidine-2-carboxamide]	20.9
CN1C(=O)[C@@H](NC(=O)c2ncc(Cl)c(-c3ccc(F)cc3F)n2)COc2ccc(Oc3ccn(C)n3)cc21 [Example 148, (S)-5-chloro-4-(2,4-difluorophenyl)-N-(5-methyl-7-((1-methyl-1H-pyrazol-3-yl)oxy)-4-oxo-2,3,4,5-tetrahydrobenzo[b]-[1,4]oxazepin-3-yl)pyrimidine-2-carboxamide]	8.58
CN1C(=O)[C@@H](NC(=O)c2ncc(Cl)c(-c3ccc(F)cc3F)n2)COc2ccc(-c3ccnn3C)cc21 [Example 149, (S)-5-chloro-4-(2,4-difluorophenyl)-N-(5-methyl-7-(1-methyl-1H-pyrazol-5-yl)-4-oxo-2,3,4,5-tetrahydrobenzo[b]-[1,4]oxazepin-3-yl)pyrimidine-2-carboxamide]	19.8
CN1C(=O)[C@@H](NC(=O)c2ncc(Cl)c(-c3ccc(F)cc3F)n2)COc2ccc(-c3cnn(C)c3)cc21 [Example 150, (S)-5-chloro-4-(2,4-difluorophenyl)-N-(5-methyl-7-(1-methyl-1H-pyrazol-4-yl)-4-oxo-2,3,4,5-tetrahydrobenzo[b]-[1,4]oxazepin-3-yl)pyrimidine-2-carboxamide]	14.2
